Data reported in publication PMC5218480 (PLoS ONE, 2017).

Tested on: MV-4-11 cells
Experiment: Gene expression microarray analysis (Affymetrix PrimeView) and GSEA
Assay type: cell-based, human
Parameters: RFU PODN (11730768_x_at) / Fold change /veh PODN (11730768_x_at) / RFU LINC00158 (11744669_a_at) / Fold change /veh LINC00158 (11744669_a_at) / RFU DUSP10 (11751237_a_at) / Fold change /veh DUSP10 (11751237_a_at) / RFU ID3 (11757404_x_at) / Fold change /veh ID3 (11757404_x_at) / RFU PLEKHG5 (11737974_s_at) / Fold change /veh PLEKHG5 (11737974_s_at) / RFU LRRC4B (11730491_at) / Fold change /veh LRRC4B (11730491_at) / RFU GIMAP4 (11747438_a_at) / Fold change /veh GIMAP4 (11747438_a_at) / RFU KRT8 (11758183_x_at) / Fold change /veh KRT8 (11758183_x_at) / RFU CNN1 (11734310_a_at) / Fold change /veh CNN1 (11734310_a_at) / RFU VPS37D (11726825_at) / Fold change /veh VPS37D (11726825_at) / RFU C10orf10 (11716522_x_at) / Fold change /veh C10orf10 (11716522_x_at) / RFU KIR2DL2 /// KIR2DL4 /// KIR2DL5A /// KIR2DL5B /// KIR2DS1 /// KIR2DS2 /// KIR2DS3 /// KIR2DS4 /// KIR3DL3 /// KIR3DL3 /// KIR3DS1 (11738374_at) / Fold change /veh KIR2DL2 /// KIR2DL4 /// KIR2DL5A /// KIR2DL5B /// KIR2DS1 /// KIR2DS2 /// KIR2DS3 /// KIR2DS4 /// KIR3DL3 /// KIR3DL3 /// KIR3DS1 (11738374_at) / RFU C1QL1 (11718748_at) / Fold change /veh C1QL1 (11718748_at) / RFU TMPRSS4 (11747572_a_at) / Fold change /veh TMPRSS4 (11747572_a_at) / RFU HAMP (11756126_x_at) / Fold change /veh HAMP (11756126_x_at) / RFU RNFT2 (11725882_a_at) / Fold change /veh RNFT2 (11725882_a_at) / RFU NR4A2 (11747474_a_at) / Fold change /veh NR4A2 (11747474_a_at) / RFU ABCC12 (11746883_a_at) / Fold change /veh ABCC12 (11746883_a_at) / RFU TMEM136 (11760407_x_at) / Fold change /veh TMEM136 (11760407_x_at) / RFU CLDN22 /// WWC2 (11732394_at) / Fold change /veh CLDN22 /// WWC2 (11732394_at) / RFU HLA-DPB1 (11760878_x_at) / Fold change /veh HLA-DPB1 (11760878_x_at) / RFU SPINT1 (11716480_a_at) / Fold change /veh SPINT1 (11716480_a_at) / RFU GAP43 (11754022_s_at) / Fold change /veh GAP43 (11754022_s_at) / RFU A4GNT (11735810_at) / Fold change /veh A4GNT (11735810_at) / RFU PRB3 (11715151_x_at) / Fold change /veh PRB3 (11715151_x_at) / RFU TUBB4B (11761932_at) / Fold change /veh TUBB4B (11761932_at) / RFU CAPN14 (11732068_a_at) / Fold change /veh CAPN14 (11732068_a_at) / RFU TMCC2 (11721928_a_at) / Fold change /veh TMCC2 (11721928_a_at) / RFU IRGQ (11745062_a_at) / Fold change /veh IRGQ (11745062_a_at) / RFU FAM174B (11720279_a_at) / Fold change /veh FAM174B (11720279_a_at) / RFU TMPRSS4 (11748680_a_at) / Fold change /veh TMPRSS4 (11748680_a_at) / RFU FAM212B (11763350_a_at) / Fold change /veh FAM212B (11763350_a_at) / RFU PLEKHG5 (11743358_a_at) / Fold change /veh PLEKHG5 (11743358_a_at) / RFU ZSCAN30 (11745921_a_at) / Fold change /veh ZSCAN30 (11745921_a_at) / RFU CMKLR1 (11741424_a_at) / Fold change /veh CMKLR1 (11741424_a_at) / RFU LOC101060620 /// MAPK8IP1 (11723275_at) / Fold change /veh LOC101060620 /// MAPK8IP1 (11723275_at) / RFU SPTSSB (11747773_x_at) / Fold change /veh SPTSSB (11747773_x_at) / RFU PRSS12 (11739890_at) / Fold change /veh PRSS12 (11739890_at) / RFU BIN1 (11741810_x_at) / Fold change /veh BIN1 (11741810_x_at) / RFU WNT11 (11732464_a_at) / Fold change /veh WNT11 (11732464_a_at) / RFU C10orf10 (11716521_a_at) / Fold change /veh C10orf10 (11716521_a_at) / RFU C5orf56 (11738089_at) / Fold change /veh C5orf56 (11738089_at) / RFU CYB561 (11721691_x_at) / Fold change /veh CYB561 (11721691_x_at) / RFU ANKRD19P (11752326_a_at) / Fold change /veh ANKRD19P (11752326_a_at) / RFU OR2T12 /// OR2T33 /// OR2T8 (11738714_s_at) / Fold change /veh OR2T12 /// OR2T33 /// OR2T8 (11738714_s_at) / RFU VCAN (11748164_a_at) / Fold change /veh VCAN (11748164_a_at) / RFU JSRP1 (11732532_at) / Fold change /veh JSRP1 (11732532_at) / RFU KRTAP10-11 (11738290_x_at) / Fold change /veh KRTAP10-11 (11738290_x_at) / RFU MYO3A (11730013_a_at) / Fold change /veh MYO3A (11730013_a_at) / RFU EBF3 (11725865_a_at) / Fold change /veh EBF3 (11725865_a_at) / RFU CAMK2N1 (11719241_x_at) / Fold change /veh CAMK2N1 (11719241_x_at) / RFU C5orf56 (11738088_a_at) / Fold change /veh C5orf56 (11738088_a_at) / RFU OLFML3 (11715873_a_at) / Fold change /veh OLFML3 (11715873_a_at) / RFU LOC100653217 /// NTM (11731650_a_at) / Fold change /veh LOC100653217 /// NTM (11731650_a_at) / RFU MAPK11 (11762145_a_at) / Fold change /veh MAPK11 (11762145_a_at) / RFU FIZ1 (11724087_x_at) / Fold change /veh FIZ1 (11724087_x_at) / RFU OASL (11726364_x_at) / Fold change /veh OASL (11726364_x_at) / RFU SOX15 (11748057_x_at) / Fold change /veh SOX15 (11748057_x_at) / RFU CD79A (11719716_a_at) / Fold change /veh CD79A (11719716_a_at) / RFU HIST1H1D (11736915_at) / Fold change /veh HIST1H1D (11736915_at) / RFU CASKIN2 (11723855_a_at) / Fold change /veh CASKIN2 (11723855_a_at) / RFU LOC730098 (11760151_x_at) / Fold change /veh LOC730098 (11760151_x_at) / RFU OR4N2 (11742367_at) / Fold change /veh OR4N2 (11742367_at) / RFU PRRT2 (11749266_a_at) / Fold change /veh PRRT2 (11749266_a_at) / RFU SNX32 (11753110_a_at) / Fold change /veh SNX32 (11753110_a_at) / RFU CDHR5 (11726645_a_at) / Fold change /veh CDHR5 (11726645_a_at) / RFU RCAN1 (11760418_a_at) / Fold change /veh RCAN1 (11760418_a_at) / RFU FAM167A (11723789_a_at) / Fold change /veh FAM167A (11723789_a_at) / RFU FAM26E (11764081_at) / Fold change /veh FAM26E (11764081_at) / RFU ISYNA1 (11749810_s_at) / Fold change /veh ISYNA1 (11749810_s_at) / RFU ACY1 (11761880_at) / Fold change /veh ACY1 (11761880_at) / RFU 11764098_at / Fold change /veh 11764098_at / RFU SAMD14 (11745864_x_at) / Fold change /veh SAMD14 (11745864_x_at) / RFU NPB (11741838_a_at) / Fold change /veh NPB (11741838_a_at) / RFU TMPRSS6 (11731388_a_at) / Fold change /veh TMPRSS6 (11731388_a_at) / RFU KRTAP10-2 (11738614_at) / Fold change /veh KRTAP10-2 (11738614_at) / RFU ARHGAP8 /// PRR5-ARHGAP8 (11727945_x_at) / Fold change /veh ARHGAP8 /// PRR5-ARHGAP8 (11727945_x_at) / RFU KRTAP5-7 /// NADSYN1 (11734609_at) / Fold change /veh KRTAP5-7 /// NADSYN1 (11734609_at) / RFU RASL12 (11751679_a_at) / Fold change /veh RASL12 (11751679_a_at) / RFU CDKN2B (11736163_a_at) / Fold change /veh CDKN2B (11736163_a_at) / RFU PRF1 (11729649_at) / Fold change /veh PRF1 (11729649_at) / RFU, ZNF638 /// ZNF638-IT1 / Fold change vs veh, ZNF638 /// ZNF638-IT1 / RFU, PANK3 / Fold change vs veh, PANK3 / RFU, SH3YL1 / Fold change vs veh, SH3YL1 / RFU, ZEB2 / Fold change vs veh, ZEB2 / RFU, NRIP1 / Fold change vs veh, NRIP1 / RFU, PTTG1IP / Fold change vs veh, PTTG1IP / RFU, CAPN2 / Fold change vs veh, CAPN2 / RFU, MED14 / Fold change vs veh, MED14 / RFU, SNORA58 / Fold change vs veh, SNORA58 / RFU, C1orf63 / Fold change vs veh, C1orf63 / RFU, LRRFIP1 / Fold change vs veh, LRRFIP1 / RFU, NDUFAF7 / Fold change vs veh, NDUFAF7 / RFU, SLC12A2 / Fold change vs veh, SLC12A2 / RFU, IBTK / Fold change vs veh, IBTK / RFU, ESF1 / Fold change vs veh, ESF1 / Fold change vs veh, TMEM50B / RFU, TAOK1 / Fold change vs veh, TAOK1 / RFU, ACBD3 / Fold change vs veh, ACBD3 / RFU, TMA16 / Fold change vs veh, TMA16 / RFU, RWDD3 / Fold change vs veh, RWDD3 / RFU, BCAT1 / Fold change vs veh, BCAT1 / RFU, EDEM3 / Fold change vs veh, EDEM3 / RFU, TMEM33 / Fold change vs veh, TMEM33 / RFU, WDR75 / Fold change vs veh, WDR75 / RFU, AHCTF1 / Fold change vs veh, AHCTF1 / RFU, TFRC / Fold change vs veh, TFRC / RFU, ZDHHC17 / Fold change vs veh, ZDHHC17 / RFU, NOM1 / Fold change vs veh, NOM1 / RFU, ARL8B / Fold change vs veh, ARL8B / RFU, ZBTB11 / Fold change vs veh, ZBTB11 / RFU, TAMM41 / Fold change vs veh, TAMM41 / RFU, KIAA1704 /// LOC100996395 / Fold change vs veh, KIAA1704 /// LOC100996395 / RFU, ING1 / Fold change vs veh, ING1 / RFU, TRMT61B / Fold change vs veh, TRMT61B / RFU, FUBP3 / Fold change vs veh, FUBP3 / RFU, TP53 / Fold change vs veh, TP53 / RFU, TNKS2 / Fold change vs veh, TNKS2 / RFU, ZFP14 / Fold change vs veh, ZFP14 / RFU, ACTR2 / Fold change vs veh, ACTR2 / RFU, PPP3R1 / Fold change vs veh, PPP3R1 / RFU, PIK3R1 / Fold change vs veh, PIK3R1 / RFU, HNRNPA1 / Fold change vs veh, HNRNPA1 / RFU, RNF170 / Fold change vs veh, RNF170 / RFU, ZNF28 / Fold change vs veh, ZNF28 / RFU, RNGTT / Fold change vs veh, RNGTT / RFU, OGT / Fold change vs veh, OGT / RFU, BRD1 / Fold change vs veh, BRD1 / RFU, MARS / Fold change vs veh, MARS / RFU, ZNF655 / Fold change vs veh, ZNF655 / RFU, FAHD1 / Fold change vs veh, FAHD1 / RFU, BDP1 / Fold change vs veh, BDP1 / RFU, LRRCC1 / Fold change vs veh, LRRCC1 / RFU, ARID1A / Fold change vs veh, ARID1A / RFU, ZNF146 / Fold change vs veh, ZNF146 / RFU, ZNF330 / Fold change vs veh, ZNF330 / RFU, GPN3 / Fold change vs veh, GPN3 / RFU, C9orf123 / Fold change vs veh, C9orf123 / RFU, N4BP2L2 / Fold change vs veh, N4BP2L2 / RFU, ARFIP1 / Fold change vs veh, ARFIP1 / RFU, FAM179B / Fold change vs veh, FAM179B / RFU, BCL10 / Fold change vs veh, BCL10 / RFU, UHRF1BP1L / Fold change vs veh, UHRF1BP1L / RFU, BET1 / Fold change vs veh, BET1 / RFU, CNOT2 / Fold change vs veh, CNOT2 / RFU, ZNF268 / Fold change vs veh, ZNF268 / Fold change vs veh, ZNF507 / RFU, DGCR2 / Fold change vs veh, DGCR2 / RFU, WDSUB1 / Fold change vs veh, WDSUB1 / Fold change vs veh, HSP90B1 /// MIR3652 / RFU, ADSS / Fold change vs veh, ADSS / RFU, GK / Fold change vs veh, GK / RFU, ZNF148 / Fold change vs veh, ZNF148 / RFU, TAF9 / Fold change vs veh, TAF9 / RFU, SLC1A5 / Fold change vs veh, SLC1A5 / RFU, SLMO2 / Fold change vs veh, SLMO2 / RFU, ABCC4 / Fold change vs veh, ABCC4 / RFU, LOC101060439 /// RAP1B / Fold change vs veh, LOC101060439 /// RAP1B / RFU, RFX7 / Fold change vs veh, RFX7 / RFU, GTPBP10 / Fold change vs veh, GTPBP10 / RFU, CNEP1R1 / Fold change vs veh, CNEP1R1 / RFU, BIVM-ERCC5 /// ERCC5 / Fold change vs veh, BIVM-ERCC5 /// ERCC5 / RFU, ILF3 / Fold change vs veh, ILF3 / RFU 11762660_at / Fold change /veh 11762660_at / RFU VCAN (11757783_s_at) / Fold change /veh VCAN (11757783_s_at) / RFU DDX43 (11728927_at) / Fold change /veh DDX43 (11728927_at) / RFU KRT8 (11758188_x_at) / Fold change /veh KRT8 (11758188_x_at) / RFU NKD1 (11759106_at) / Fold change /veh NKD1 (11759106_at) / RFU SRD5A1 (11742802_a_at) / Fold change /veh SRD5A1 (11742802_a_at) / RFU TPSAB1 /// TPSB2 (11721975_s_at) / Fold change /veh TPSAB1 /// TPSB2 (11721975_s_at) / RFU GSTM3 (11746129_a_at) / Fold change /veh GSTM3 (11746129_a_at) / RFU IL23R (11737362_x_at) / Fold change /veh IL23R (11737362_x_at) / RFU TMEM51 (11727254_a_at) / Fold change /veh TMEM51 (11727254_a_at) / RFU PIWIL2 (11732686_x_at) / Fold change /veh PIWIL2 (11732686_x_at) / RFU ORM1 (11744905_x_at) / Fold change /veh ORM1 (11744905_x_at) / RFU CCDC152 (11743942_at) / Fold change /veh CCDC152 (11743942_at) / RFU ECM1 (11717891_a_at) / Fold change /veh ECM1 (11717891_a_at) / RFU IL23R (11748794_a_at) / Fold change /veh IL23R (11748794_a_at) / RFU TNFAIP8L3 (11732012_x_at) / Fold change /veh TNFAIP8L3 (11732012_x_at) / RFU MBOAT4 (11741988_at) / Fold change /veh MBOAT4 (11741988_at) / RFU 11764193_at / Fold change /veh 11764193_at / RFU TMEM53 (11763286_at) / Fold change /veh TMEM53 (11763286_at) / RFU MAGEB2 (11727129_at) / Fold change /veh MAGEB2 (11727129_at) / RFU TMEM200A (11744735_a_at) / Fold change /veh TMEM200A (11744735_a_at) / RFU CCDC152 (11751479_a_at) / Fold change /veh CCDC152 (11751479_a_at) / RFU FAM211A (11726209_a_at) / Fold change /veh FAM211A (11726209_a_at) / RFU RGS16 (11746705_a_at) / Fold change /veh RGS16 (11746705_a_at) / RFU VCAN (11755009_s_at) / Fold change /veh VCAN (11755009_s_at) / RFU RHOB (11743442_s_at) / Fold change /veh RHOB (11743442_s_at) / RFU RGS16 (11720943_a_at) / Fold change /veh RGS16 (11720943_a_at) / RFU RGS16 (11720944_at) / Fold change /veh RGS16 (11720944_at) / RFU, VPS4B / Fold change vs veh, VPS4B / RFU, CREB1 / Fold change vs veh, CREB1 / RFU, DNAJC13 / Fold change vs veh, DNAJC13 / RFU, GNAQ / Fold change vs veh, GNAQ / RFU, CDK5R1 / Fold change vs veh, CDK5R1 / RFU, ZRANB3 / Fold change vs veh, ZRANB3 / RFU, CUL4A / Fold change vs veh, CUL4A / RFU, CCNY / Fold change vs veh, CCNY / RFU, UFL1 / Fold change vs veh, UFL1 / RFU, COG3 / Fold change vs veh, COG3 / RFU, DIAPH2 / Fold change vs veh, DIAPH2 / RFU, SKA2 / Fold change vs veh, SKA2 / RFU, AFF3 / Fold change vs veh, AFF3 / RFU, LMF1 / Fold change vs veh, LMF1 / RFU, IPO11 / Fold change vs veh, IPO11 / RFU, DFFB / Fold change vs veh, DFFB / RFU, FOXP1 / Fold change vs veh, FOXP1 / RFU, CARD8 / Fold change vs veh, CARD8 / RFU, STRN3 / Fold change vs veh, STRN3 / RFU, ADK / Fold change vs veh, ADK / RFU, RASSF2 / Fold change vs veh, RASSF2 / RFU, WIPF1 / Fold change vs veh, WIPF1 / RFU, LARP1B / Fold change vs veh, LARP1B / RFU, RASA1 / Fold change vs veh, RASA1 / RFU, RB1 / Fold change vs veh, RB1 / RFU, PPFIA1 / Fold change vs veh, PPFIA1 / RFU, MAT2A / Fold change vs veh, MAT2A / RFU, CCT5 / Fold change vs veh, CCT5 / RFU, WDR92 / Fold change vs veh, WDR92 / RFU, CUX1 / Fold change vs veh, CUX1 / RFU, TTC7A / Fold change vs veh, TTC7A / RFU, TMEM135 / Fold change vs veh, TMEM135 / RFU, DEPTOR / Fold change vs veh, DEPTOR / RFU, CPM / Fold change vs veh, CPM / RFU, DNAJB6 / Fold change vs veh, DNAJB6 / RFU, CACNA2D3 / Fold change vs veh, CACNA2D3 / RFU, DTX4 / Fold change vs veh, DTX4 / RFU, TFCP2 / Fold change vs veh, TFCP2 / RFU, GMCL1 /// GMCL1P1 / Fold change vs veh, GMCL1 /// GMCL1P1 / RFU, AEBP2 / Fold change vs veh, AEBP2 / RFU, SNHG1 /// SNORD22 /// SNORD25 /// SNORD26 /// SNORD27 /// SNORD28 /// SNORD29 /// SNORD31 / Fold change vs veh, SNHG1 /// SNORD22 /// SNORD25 /// SNORD26 /// SNORD27 /// SNORD28 /// SNORD29 /// SNORD31 / Fold change (Aza/veh), C12orf56 (ProbeSet 11735607_a_at) / Fold change (ACY-1035/veh), C12orf56 (ProbeSet 11735607_a_at) / Fold change (Aza/veh), FGFR1OP (ProbeSet 11751329_s_at) / Fold change (ACY-1035/veh), FGFR1OP (ProbeSet 11751329_s_at) / Fold change (Aza/veh), VPS36 (ProbeSet 11739960_a_at) / Fold change (ACY-1035/veh), VPS36 (ProbeSet 11739960_a_at) / RFU SYPL1 (11715823_x_at) / Fold change /veh SYPL1 (11715823_x_at) / RFU IGFBP7 (11715501_s_at) / Fold change /veh IGFBP7 (11715501_s_at) / RFU REEP3 (11722064_at) / Fold change /veh REEP3 (11722064_at) / RFU IGLL1 (11728026_x_at) / Fold change /veh IGLL1 (11728026_x_at): dose or concentration left out as unconfirmed
Details: ProbeSet 11725885_a_at; LIST B

Nc1ncn([C@@H]2O[C@H](CO)[C@@H](O)[C@H]2O)c(=O)n1 [azacitidine]
RFU, CNEP1R1: 65.19 RFU
